Where two headings read alike, the source gives them in different places.
Key:
[1] = target: NAPRT; design: method as in PMID 4255930; details: cited from earlier work
[2] = target: NAPRT; design: method as in PMID 4333776; details: cited from earlier work
[3] = test system: NAPRT; design: method as in PMID 35890155; details: cited from earlier work
[4] = target: NAPRT; design: method as in PMID 35890147; details: cited from earlier work
[5] = target: T1, Human recombinant NAPRT (Homo sapiens, UniProt Q6XQN6); assay: HPLC-based NAPRT activity screening assay; format: biochemical
T1 construct: made in house
T1 sequence (Q6XQN6 1-538): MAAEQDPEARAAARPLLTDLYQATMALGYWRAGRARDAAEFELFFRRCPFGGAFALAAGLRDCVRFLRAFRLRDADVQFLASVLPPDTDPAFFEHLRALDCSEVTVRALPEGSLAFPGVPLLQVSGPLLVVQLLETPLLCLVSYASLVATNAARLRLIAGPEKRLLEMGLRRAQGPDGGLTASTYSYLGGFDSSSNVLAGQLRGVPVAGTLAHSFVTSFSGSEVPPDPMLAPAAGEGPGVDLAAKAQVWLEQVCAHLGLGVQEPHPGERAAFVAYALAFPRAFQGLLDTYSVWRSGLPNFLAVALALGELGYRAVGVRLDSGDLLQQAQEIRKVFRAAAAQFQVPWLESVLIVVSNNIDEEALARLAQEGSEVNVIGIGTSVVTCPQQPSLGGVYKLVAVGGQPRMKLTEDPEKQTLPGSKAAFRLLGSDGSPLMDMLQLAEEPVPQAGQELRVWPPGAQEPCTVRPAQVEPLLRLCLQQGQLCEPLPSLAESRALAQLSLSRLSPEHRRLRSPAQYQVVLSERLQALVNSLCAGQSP

[6] = 1 mM compound, 0.2 mM NA, 0.4 mM PRPP
[7] = 1 mM compound, 0.2 mM NA, 0.4 mM PRPP, read-out: % Inhibition
[8] = 1 mM compound, 0.2 mM NA, 0.4 mM PRPP, read-out: % Inhibition (not active class)

| Compound | -Fold Stimulation (not active class) [5, 6] | inhibition at 1000 µM [5, 7] [%] | inhibition at 1000 µM [5, 8] [%] | -Fold Stimulation [5, 6] [fold] | other results |
| --- | --- | --- | --- | --- | --- |
| O=C(O)c1cccnc1F [Compound 2] |  |  |  |  | Ki [1]: 280 µM |
| CCCCC1C(=O)N(c2ccccc2)N(c2ccccc2)C1=O [Compound 4, phenylbutazone] |  |  |  |  | Ki [2]: 160 µM |
| O=C(O)c1ccccc1Nc1cccc(C(F)(F)F)c1 [Compound 5, flufenamic acid] |  |  |  |  | Ki [2]: 46 µM |
| Cc1cccc(Nc2ccccc2C(=O)O)c1C [Compound 6, mefenamic acid] |  |  |  |  | Ki [2]: 76 µM |
| O=C(O)c1ccccc1O [Compound 7, salicylic acid] |  |  |  |  | Ki [2]: 160 µM |
| CC(C)(C)C(=O)OCCCn1cc(CCCN2C[C@@H](O)[C@@H](O)[C@@H]2NC(=O)c2ccccc2)nn1 [Compound 8] |  |  |  |  | IC50 [3]: 327 µM |
| CC(C)(C)C(=O)OCCCn1cc(CCCN2C[C@@H](O)[C@@H](O)[C@@H]2Cn2cc(-c3ccccc3)nn2)nn1 [Compound 9] |  |  |  |  | IC50 [3]: 242 µM |
| NCc1cc2c(cc1Cl)OCO2 [Compound 10] |  |  |  |  | IC50 [3]: 160 µM |
| O=C(Cn1c(=O)sc2ccccc21)Nc1cccc(C(=O)O)c1 [Compound 11] |  |  |  |  | IC50 [3]: 232 µM |
| CC(Oc1ccccc1Cl)C(=O)Nc1cccc(C(=O)O)c1 (stereo not drawn) [Compound 12] |  |  |  |  | IC50 [3]: 265 µM |
| O=C(N[C@@H](C(=O)c1ccccc1)n1cnccc1=O)c1ccccc1 [Compound 13] |  |  |  |  | Ki [4]: 2300 µM |
| O=C(NC(Sc1ccncn1)C(=O)c1ccccc1)c1ccccc1 (stereo not drawn) [Compound 14] |  |  |  |  | Ki [4]: 89 µM |
| O=C(O)c1cnccc1O [Compound 15] |  |  |  |  | Ki [4]: 308 µM |
| O=C(O)c1cnsn1 [Compound 16] |  |  |  |  | Ki [4]: 295 µM |
| CC(=O)NCc1cccc(CNc2ccc3c(c2)nc(C)n3C)c1 [Compound 17, N-(3-(((1,2-dimethyl-1H-benzo[d]imidazol-5-yl)amino)methyl)benzyl)acetamide] | -^b (Not active, it is referred to compounds showing less than 10% inhibition or less than 1.10-fold stimulation) | 30 |  |  | % Inhibition [5, 6]: 30.3 ± 6.0% |
| Cc1nc2cc(NCc3cccc(CN)c3)ccc2n1C [Compound 19, N-(3-(aminomethyl)benzyl)-1,2-dimethyl-1H-benzo[d]imidazol-5-amine] | - (Not active, it is referred to compounds showing less than 10% inhibition or less than 1.10-fold stimulation) | 0.6 ± 0.9 | < 10 |  | Effect on NAPRT catalytic activity (in words) [5]: inactive |
| Cc1nc2cc(NCc3cccc(N)c3)ccc2n1C [Compound 20, N-(3-aminobenzyl)-1,2-dimethyl-1H-benzo[d]imidazol-5-amine] |  |  | < 10 | 1.25 ± 0.05 | Effect on NAPRT catalytic activity (in words) [5]: NAPRT activators |
| CC(=O)NCc1cccc(CN(C)c2ccc3c(c2)nc(C)n3C)c1 [Compound 21, N-(3-(((1,2-dimethyl-1H-benzo[d]imidazol-5-yl)(methyl)amino)methyl)benzyl) acetamide] | - (Not active, it is referred to compounds showing less than 10% inhibition or less than 1.10-fold stimulation) | 0 | < 10 | 0 |  |
| CC(=O)Nc1cccc(CN(C)c2ccc3c(c2)nc(C)n3C)c1 [Compound 22, N-(3-(((1,2-dimethyl-1H-benzo[d]imidazol-5-yl)(methyl)amino)methyl)phenyl) acetamide] | - (Not active, it is referred to compounds showing less than 10% inhibition or less than 1.10-fold stimulation) | 5 ± 1.2 | < 10 |  |  |
| Cc1nc2cc(N(C)Cc3cccc(CN)c3)ccc2n1C [Compound 23, N-(3-(aminomethyl)benzyl)-N,1,2-trimethyl-1H-benzo[d]imidazol-5-amine] |  |  | < 10 | 1.14 ± 0.05 | Effect on NAPRT catalytic activity (in words) [5]: NAPRT activators |
| Cc1nc2cc(N(C)Cc3cccc(N)c3)ccc2n1C [Compound 24, N-(3-aminobenzyl)-N,1,2-trimethyl-1H-benzo[d]imidazol-5-amine] |  |  | < 10 | 1.44 ± 0.04 | Effect on NAPRT catalytic activity (in words) [5]: NAPRT activators |
| CC(=O)NCc1ccc(CNc2ccc3c(c2)nc(C)n3C)cc1 [Compound 25, N-(4-(((1,2-dimethyl-1H-benzo[d]imidazol-5-yl)amino)methyl)benzyl)acetamide] | - (Not active, it is referred to compounds showing less than 10% inhibition or less than 1.10-fold stimulation) | 13 ± 3.1 |  |  | Effect on NAPRT catalytic activity (in words) [5]: inhibit NAPRT activity |
| CC(=O)Nc1ccc(CNc2ccc3c(c2)nc(C)n3C)cc1 [Compound 26, N-(4-(((1,2-dimethyl-1H-benzo[d]imidazol-5-yl)amino)methyl)phenyl)acetamide] | - (Not active, it is referred to compounds showing less than 10% inhibition or less than 1.10-fold stimulation) | 1.3 | < 10 |  |  |
| Cc1nc2cc(NCc3ccc(CN)cc3)ccc2n1C [Compound 27, N-(4-(aminomethyl)benzyl)-1,2-dimethyl-1H-benzo[d]imidazol-5-amine] | - (Not active, it is referred to compounds showing less than 10% inhibition or less than 1.10-fold stimulation) | 1.9 ± 0.9 | < 10 |  |  |
| Cc1nc2cc(NCc3ccc(N)cc3)ccc2n1C [Compound 28, N-(4-aminobenzyl)-1,2-dimethyl-1H-benzo[d]imidazol-5-amine] | - (Not active, it is referred to compounds showing less than 10% inhibition or less than 1.10-fold stimulation) | 0 | < 10 | 0 |  |
| CC(=O)NCc1ccc(CN(C)c2ccc3c(c2)nc(C)n3C)cc1 [Compound 29, N-(4-(((1,2-dimethyl-1H-benzo[d]imidazol-5-yl)(methyl)amino)methyl)benzyl) acetamide] | - (Not active, it is referred to compounds showing less than 10% inhibition or less than 1.10-fold stimulation) | 12 ± 2.2 |  |  | Effect on NAPRT catalytic activity (in words) [5]: inhibit NAPRT activity |
| CC(=O)Nc1ccc(CN(C)c2ccc3c(c2)nc(C)n3C)cc1 [Compound 30, N-(4-(((1,2-dimethyl-1H-benzo[d]imidazol-5-yl)(methyl)amino)methyl)phenyl) acetamide] | - (Not active, it is referred to compounds showing less than 10% inhibition or less than 1.10-fold stimulation) | 0 | < 10 | 0 |  |
| Cc1nc2cc(N(C)Cc3ccc(CN)cc3)ccc2n1C [Compound 31, N-(4-(aminomethyl)benzyl)-N,1,2-trimethyl-1H-benzo[d]imidazol-5-amine] |  |  | < 10 | 1.58 ± 0.07 | Effect on NAPRT catalytic activity (in words) [5]: NAPRT activators |
| N-(3-(((1,2-dimethyl-1H-benzo[d]imidazol-5-yl)(methyl)amino)methyl)benzyl) acetamide [Compound 33] | - (Not active, it is referred to compounds showing less than 10% inhibition or less than 1.10-fold stimulation) |  |  | 1.08 ± 0.03 | % Inhibition (not active class) [5, 6]: - (Not active, it is referred to compounds showing less than 10% inhibition or less than 1.10-fold stimulation) |
| N-(3-(((1,2-dimethyl-1H-benzo[d]imidazol-5-yl)amino)methyl)benzyl)acetamide [Compound 32] |  |  |  | 1.47 ± 0.07 | Effect on NAPRT catalytic activity (in words) [5]: NAPRT activators; % Inhibition (not active class) [5, 6]: - (Not active, it is referred to compounds showing less than 10% inhibition or less than 1.10-fold stimulation) |

From paper PMC9967085, “Properly Substituted Benzimidazoles as a New Promising Class of Nicotinate Phosphoribosyltransferase (NAPRT) Modulators” (Pharmaceuticals, 2023)
